Reference: PMC3169562, “The Hedgehog Receptor Patched Is Involved in Cholesterol Transport” (PLoS ONE, 2011)

Key:
human Patched (hPtc) [1] = molecular target: T1, human Patched (hPtc) (Homo sapiens, UniProt Q13635); assay: SPR (Biacore): purified hPtc injected over thiocholesterol covalently coupled to a CM5 chip; Myodulin as negative control; format: binding; design: gene PTCH1
T1 sequence (Q13635 1-1447): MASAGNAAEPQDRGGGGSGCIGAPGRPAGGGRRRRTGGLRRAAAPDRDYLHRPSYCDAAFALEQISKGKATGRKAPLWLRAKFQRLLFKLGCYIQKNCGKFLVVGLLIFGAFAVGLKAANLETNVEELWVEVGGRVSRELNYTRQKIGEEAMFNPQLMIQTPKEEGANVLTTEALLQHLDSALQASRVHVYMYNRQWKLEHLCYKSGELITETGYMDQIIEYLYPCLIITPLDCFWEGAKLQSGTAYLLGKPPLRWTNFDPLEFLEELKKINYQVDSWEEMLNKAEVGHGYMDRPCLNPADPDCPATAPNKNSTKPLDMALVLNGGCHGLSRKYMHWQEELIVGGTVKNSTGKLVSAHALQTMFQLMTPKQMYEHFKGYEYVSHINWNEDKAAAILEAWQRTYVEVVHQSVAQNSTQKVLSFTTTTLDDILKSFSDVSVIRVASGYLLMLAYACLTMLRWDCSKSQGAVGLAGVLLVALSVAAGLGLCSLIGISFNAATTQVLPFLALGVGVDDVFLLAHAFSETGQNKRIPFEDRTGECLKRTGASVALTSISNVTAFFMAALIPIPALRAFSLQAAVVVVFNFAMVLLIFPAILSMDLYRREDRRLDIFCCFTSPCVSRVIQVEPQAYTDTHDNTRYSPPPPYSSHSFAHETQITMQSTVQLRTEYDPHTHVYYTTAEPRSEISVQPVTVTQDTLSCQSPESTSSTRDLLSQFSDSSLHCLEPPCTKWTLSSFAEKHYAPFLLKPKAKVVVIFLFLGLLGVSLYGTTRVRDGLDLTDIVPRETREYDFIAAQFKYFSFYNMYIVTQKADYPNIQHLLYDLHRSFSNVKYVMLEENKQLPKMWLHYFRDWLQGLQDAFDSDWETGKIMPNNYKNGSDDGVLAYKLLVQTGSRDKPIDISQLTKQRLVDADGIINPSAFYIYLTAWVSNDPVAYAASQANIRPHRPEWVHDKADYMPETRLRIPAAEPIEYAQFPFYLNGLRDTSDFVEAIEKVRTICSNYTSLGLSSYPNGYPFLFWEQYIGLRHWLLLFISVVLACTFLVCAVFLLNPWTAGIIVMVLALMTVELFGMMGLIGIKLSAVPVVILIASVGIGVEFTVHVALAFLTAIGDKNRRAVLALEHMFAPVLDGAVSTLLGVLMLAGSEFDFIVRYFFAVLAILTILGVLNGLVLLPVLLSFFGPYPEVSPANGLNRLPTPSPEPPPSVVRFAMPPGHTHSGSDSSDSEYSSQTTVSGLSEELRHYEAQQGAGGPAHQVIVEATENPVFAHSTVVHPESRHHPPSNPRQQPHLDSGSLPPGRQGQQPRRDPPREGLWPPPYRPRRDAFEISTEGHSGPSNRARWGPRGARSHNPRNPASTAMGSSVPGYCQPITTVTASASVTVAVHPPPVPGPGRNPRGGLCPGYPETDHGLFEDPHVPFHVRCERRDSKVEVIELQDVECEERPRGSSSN

human Patched (hPtc) [2] = molecular target: T1, human Patched (hPtc); assay: fluorescent sterol efflux from yeast over-expressing hPtc versus Myodulin or hSmo controls; format: cell-based; design: gene PTCH1; hPtc-MAP over-expressed in S. cerevisiae

| % increase of efflux (human Patched (hPtc) [2]) | SMILES | SPR (Biacore): purified hPtc injected over thiocholesterol covalently coupled to (human Patched (hPtc) [1]) |
| --- | --- | --- |
|  | CC(C)CCC[C@@H](C)[C@H]1CC[C@H]2[C@@H]3CC=C4C[C@@H](O)CC[C@]4(C)[C@H]3CC[C@]12C [cholesterol] | showed a clear binding of hPtc to cholesterol coupled on the fc in comparison with Myo |
| ~ 88 % increase of efflux | CC1=CC(C)=[N+]2C1=C(CC[C@@H](C)[C@H]1CC[C@H]3[C@@H]4CC=C5C[C@@H](O)CC[C@]5(C)[C@H]4CC[C@]13C)c1c(C)cc(C)n1[B-]2(F)F [BODIPY-cholesterol] |  |
